Measurements taken from article PMC5935545 (Molecular cell, 2018).

Tests used:
[1] = biological target: EZH2 Y646N (PRC2/EZH2^Y646N) (Homo sapiens, UniProt Q15910, Y641N); assay type: biochemical
EZH2 (PRC2) = EZH2 (PRC2) (Homo sapiens, UniProt Q15910); assay type: biochemical
Chain of EZH2 (PRC2) (Q15910 whole entry): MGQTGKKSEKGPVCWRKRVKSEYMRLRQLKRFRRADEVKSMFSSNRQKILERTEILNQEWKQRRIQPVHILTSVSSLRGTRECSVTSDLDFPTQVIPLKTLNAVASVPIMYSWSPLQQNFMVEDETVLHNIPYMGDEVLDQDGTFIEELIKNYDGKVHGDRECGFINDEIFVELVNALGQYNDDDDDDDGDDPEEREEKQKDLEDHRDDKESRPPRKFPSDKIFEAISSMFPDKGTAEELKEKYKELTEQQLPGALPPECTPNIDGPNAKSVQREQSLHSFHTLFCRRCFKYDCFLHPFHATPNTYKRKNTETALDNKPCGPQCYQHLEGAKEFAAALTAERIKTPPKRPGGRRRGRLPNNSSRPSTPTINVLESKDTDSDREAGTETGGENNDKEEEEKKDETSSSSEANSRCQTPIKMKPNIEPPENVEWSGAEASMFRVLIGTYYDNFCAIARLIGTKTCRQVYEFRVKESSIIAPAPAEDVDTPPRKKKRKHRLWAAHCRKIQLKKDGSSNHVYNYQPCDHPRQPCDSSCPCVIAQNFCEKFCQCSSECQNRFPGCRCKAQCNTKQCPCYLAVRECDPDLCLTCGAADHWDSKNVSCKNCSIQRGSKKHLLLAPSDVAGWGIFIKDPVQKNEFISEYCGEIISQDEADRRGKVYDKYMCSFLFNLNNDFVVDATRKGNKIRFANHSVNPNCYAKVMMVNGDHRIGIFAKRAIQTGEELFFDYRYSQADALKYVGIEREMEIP
Chain of EZH2 (PRC2) (O75530 2-441 partner): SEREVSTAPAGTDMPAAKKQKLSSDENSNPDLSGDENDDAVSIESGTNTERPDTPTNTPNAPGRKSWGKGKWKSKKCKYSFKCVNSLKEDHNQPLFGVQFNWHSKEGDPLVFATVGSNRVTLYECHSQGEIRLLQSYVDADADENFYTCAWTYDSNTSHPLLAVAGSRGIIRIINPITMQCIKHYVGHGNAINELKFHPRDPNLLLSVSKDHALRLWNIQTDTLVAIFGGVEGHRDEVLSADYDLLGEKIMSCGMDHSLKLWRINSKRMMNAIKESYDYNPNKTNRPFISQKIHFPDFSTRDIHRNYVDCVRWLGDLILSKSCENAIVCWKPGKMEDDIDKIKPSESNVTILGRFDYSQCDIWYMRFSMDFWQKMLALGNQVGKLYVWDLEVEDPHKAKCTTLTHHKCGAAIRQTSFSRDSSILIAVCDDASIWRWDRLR
Chain of EZH2 (PRC2) (Q15022 whole entry partner): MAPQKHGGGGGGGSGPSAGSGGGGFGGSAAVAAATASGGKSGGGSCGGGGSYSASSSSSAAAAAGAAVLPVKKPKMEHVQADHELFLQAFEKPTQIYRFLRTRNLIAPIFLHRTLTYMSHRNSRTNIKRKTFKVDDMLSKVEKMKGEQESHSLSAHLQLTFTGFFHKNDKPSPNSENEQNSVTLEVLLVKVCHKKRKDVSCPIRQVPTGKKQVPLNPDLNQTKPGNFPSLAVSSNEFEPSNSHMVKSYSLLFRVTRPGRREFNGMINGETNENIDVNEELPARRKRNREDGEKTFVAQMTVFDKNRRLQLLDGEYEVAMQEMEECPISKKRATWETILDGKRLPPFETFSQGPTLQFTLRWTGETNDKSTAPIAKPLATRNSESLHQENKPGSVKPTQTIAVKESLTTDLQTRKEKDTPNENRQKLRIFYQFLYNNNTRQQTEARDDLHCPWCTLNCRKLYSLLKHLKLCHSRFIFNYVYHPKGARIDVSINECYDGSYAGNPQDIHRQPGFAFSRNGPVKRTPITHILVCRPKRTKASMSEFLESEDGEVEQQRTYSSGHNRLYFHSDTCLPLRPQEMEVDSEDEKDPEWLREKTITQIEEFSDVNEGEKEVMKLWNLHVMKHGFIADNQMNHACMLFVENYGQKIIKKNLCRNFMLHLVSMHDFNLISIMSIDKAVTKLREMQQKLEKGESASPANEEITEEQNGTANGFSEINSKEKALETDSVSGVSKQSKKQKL
Chain of EZH2 (PRC2) (Q09028 2-425 partner): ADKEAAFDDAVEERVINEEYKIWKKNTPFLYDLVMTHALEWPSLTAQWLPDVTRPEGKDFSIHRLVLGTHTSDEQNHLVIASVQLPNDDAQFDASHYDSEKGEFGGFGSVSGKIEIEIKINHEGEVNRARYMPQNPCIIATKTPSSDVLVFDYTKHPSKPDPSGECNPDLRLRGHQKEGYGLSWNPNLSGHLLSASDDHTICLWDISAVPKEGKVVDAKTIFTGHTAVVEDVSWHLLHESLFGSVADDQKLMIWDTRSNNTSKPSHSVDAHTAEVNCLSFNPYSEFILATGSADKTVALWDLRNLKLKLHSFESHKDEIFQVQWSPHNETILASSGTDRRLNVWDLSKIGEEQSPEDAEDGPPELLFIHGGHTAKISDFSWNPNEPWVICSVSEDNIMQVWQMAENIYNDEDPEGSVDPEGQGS

Chain of EZH2 Y646N (PRC2/EZH2^Y646N) (Q15910 whole entry Y641N): as the sequence (Q15910 whole entry) above, with Y641N counted along it
Chain of EZH2 Y646N (PRC2/EZH2^Y646N) (O75530 2-441 partner): as the sequence (O75530 2-441 partner) above
Chain of EZH2 Y646N (PRC2/EZH2^Y646N) (Q15022 whole entry partner): as the sequence (Q15022 whole entry partner) above
Chain of EZH2 Y646N (PRC2/EZH2^Y646N) (Q09028 2-425 partner): as the sequence (Q09028 2-425 partner) above

Work on `COC(=O)c1ccc(NC(=O)c2ccc(NC(=O)c3ccc([N+](=O)[O-])c(OCc4ccccc4)n3)c(OCc3ccccc3)n2)c(OCCCN)n1` [ADH-61] yielded an IC50 [1] of 891 ± 96 nM and an IC50 (EZH2 (PRC2)) of 766 ± 710 nM.
